# Laboratory results reported in US7223759B2, “Antibacterial 3,5-diaminopiperidine-substituted aromatic and heteroaromatic compounds” (Anadys Pharmaceuticals, Inc., priority 2003, dated 2007).
# Like-named read-outs stand apart in the source and are kept apart here.
# Test system: Escherichia coli (ATCC25922) or Staphylococcus aureus (ATCC25923)
# Test: Antibacterial MIC, microdilution method in Mueller-Hinton medium
# Format: cell-based
# Details: Escherichia coli, 18 h, read-out: Potency (MIC)
# Method in brief: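 Read after 18 h incubation at 35° C, MIC is the lowest compound level that blocked growth. Compounds were tested in duplicate over 64–0.5 μg/ml two-fold dilutions using Mueller-Hinton microdilution per NCCLS standard.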
# [1] = MIC in E. coli or S. aureus, two-fold serial dilutions 64 to 0.5 μg/ml in duplicate, 18 hours of incubation at 35° C.
MIC [1] [µg/mL],Structure (SMILES),MIC [µg/mL]
< 16,"Cl.N[C@@H]1C[C@H](N)CN(c2nc(Nc3ccc(O)c4ccccc34)nc(N3C[C@H](N)C[C@H](N)C3)n2)C1 [N-(4-hydroxy-naphthalen-1-yl)-4,6-Bis-((3R,5S)-3,5-diamino-piperidin-1-yl)-[1,3,5]triazine-2-amine]",
> 64,"N[C@@H]1C[C@H](N)CN(c2nc(Nc3ccc(O)cc3)nc(N3C[C@H](N)C[C@H](N)C3)n2)C1 [N-(4-hydroxy-phenyl)-4,6-Bis-((3R,5S)-3,5-diamino-piperidin-1-yl)-[1,3,5]triazine-2-amine]",
,"COc1ccc(Nc2nc(N3C[C@H](N)C[C@H](N)C3)nc(N3C[C@H](N)C[C@H](N)C3)n2)c([N+](=O)[O-])c1 [N-(4-methoxy-2-nitro-phenyl)-4,6-Bis-((3R,5S)-3,5-diamino-piperidin-1-yl)-[1,3,5]triazine-2-amine]",> 64
< 64,"COc1ccc(-c2ccccc2)cc1Nc1nc(N2C[C@H](N)C[C@H](N)C2)nc(N2C[C@H](N)C[C@H](N)C2)n1 [N-(4-methoxy-biphenyl-3-yl)-4,6-Bis-((3R,5S)-3,5-0diamino-piperidin-1-yl)-[1,3,5]triazine-2-amine]",
,"COc1ccc(Nc2nc(N3C[C@H](N)C[C@H](N)C3)nc(N3C[C@H](N)C[C@H](N)C3)n2)cc1 [N-(4-methoxy-phenyl)-4,6-Bis-((3R,5S)-3,5-diamino-piperidin-1-yl)-[1,3,5]triazine-2-amine]",> 64
,"Cc1cc(=O)oc2cc(Nc3nc(N4C[C@H](N)C[C@H](N)C4)nc(N4C[C@H](N)C[C@H](N)C4)n3)ccc12 [N-(4-methyl-2-oxo-2H-chromen-7-yl)-4,6-Bis-((3R,5S)-3,5-diamino-piperidin-1-yl)-[1,3,5]triazine-2-amine]",< 16
> 64,"Cc1csc(Nc2nc(N3C[C@H](N)C[C@H](N)C3)nc(N3C[C@H](N)C[C@H](N)C3)n2)n1.Cl [N-(4-methyl-thiazol-2-yl)-4,6-Bis-((3R,5S)-3,5-diamino-piperidin-1-yl)-[1,3,5]triazine-2-amine]",
,"CSc1ccc(CNc2nc(N3C[C@H](N)C[C@H](N)C3)nc(N3C[C@H](N)C[C@H](N)C3)n2)cc1 [N-(4-methylsulfanyl-benzyl)-4,6-Bis-((3R,5S)-3,5-diamino-piperidin-1-yl)-[1,3,5]triazine-2-amine]",< 64
,"N[C@@H]1C[C@H](N)CN(c2nc(Nc3ccc(N4CCOCC4)cc3)nc(N3C[C@H](N)C[C@H](N)C3)n2)C1 [N-(4-morpholin-4-yl-phenyl)-4,6-Bis-((3R,5S)-3,5-diamino-piperidin-1-yl)-[1,3,5]triazine-2-amine]",> 64
,"N[C@@H]1C[C@H](N)CN(c2nc(Nc3ccc([N+](=O)[O-])cc3)nc(N3C[C@H](N)C[C@H](N)C3)n2)C1 [N-(4-nitro-phenyl)-4,6-Bis-((3R,5S)-3,5-diamino-piperidin-1-yl)-[1,3,5]triazine-2-amine]",< 64
,"N[C@@H]1C[C@H](N)CN(c2nc(NCc3ccc(Oc4ccccc4)cc3)nc(N3C[C@H](N)C[C@H](N)C3)n2)C1 [N-(4-phenoxy-benzyl)-4,6-Bis-((3R,5S)-3,5-diamino-piperidin-1-yl)-[1,3,5]triazine-2-amine]",> 64
< 64,"N[C@@H]1C[C@H](N)CN(c2nc(Nc3ccc(Nc4ccccc4)cc3)nc(N3C[C@H](N)C[C@H](N)C3)n2)C1 [N-(4-phenylamino-phenyl)-4,6-Bis((3R,5S)-3,5-diamino-piperidin-1-yl)-[1,3,5]triazine-2-amine]",
> 64,"N[C@@H]1C[C@H](N)CN(c2nc(Nc3ccc(C(=O)Nc4ccccc4)cc3)nc(N3C[C@H](N)C[C@H](N)C3)n2)C1 [N-(4-phenylcarbamoyl-phenyl)-4,6-Bis-((3R,5S)-3,5-diamino-piperidin-1-yl)-[1,3,5]triazine-2-amine]",
< 64,"N=C(N)Nc1ccc(Nc2nc(N3CCCCC3)nc(N3CCCCC3)n2)cc1 [N-(4-quanidino-phenyl)-4,6-Bis-((3R,5S)-3,5-diamino-piperidin-1-yl)-[1,3,5]triazine-2-amine]",
,"N[C@@H]1C[C@H](N)CN(c2nc(Nc3ccc(S(N)(=O)=O)cc3)nc(N3C[C@H](N)C[C@H](N)C3)n2)C1 [N-(4-sulfamoyl-phenyl)-4,6-Bis-((3R,5S)-3,5-diamino-piperidin-1-yl)-[1,3,5]triazine-2-amine]",> 64
< 64,"N[C@@H]1C[C@H](N)CN(c2nc(Nc3ccc(SC(F)(F)F)cc3)nc(N3C[C@H](N)C[C@H](N)C3)n2)C1 [N-(4-trifluoromethylsulfanyl-phenyl)-4,6-Bis-((3R,5S)-3,5-diamino-piperidin-1-yl)-[1,3,5]triazine-2-amine]",
,"C=Cc1ccc(Nc2nc(N3C[C@H](N)C[C@H](N)C3)nc(N3C[C@H](N)C[C@H](N)C3)n2)cc1 [N-(4-vinyl-phenyl)-4,6-Bis-((3R,5S)-3,5-diamino-piperidin-1-yl)-[1,3,5]triazine-2-amine]",< 64
,"N[C@@H]1C[C@H](N)CN(c2nc(Nc3ccc(C(=O)CC(=O)Nc4ccc(S(=O)(=O)Nc5ccc6cn[nH]c6c5)cc4)cc3)nc(N3C[C@H](N)C[C@H](N)C3)n2)C1 [N-(4-{2-[4-(1H-indazol-6-ylsulfamoyl)-phenylcarbamoyl]-acetyl}-phenyl)-4,6-Bis-((3R,5S)-3,5-diamino-piperidin-1-yl)-[1,3,5]triazine-2-amine]",< 64
> 64,"CCN(C)CCNC(=O)c1ccc(NC(=O)CC(=O)c2ccc(Nc3nc(N4CCCCC4)nc(N4CCCCC4)n3)cc2)cc1.Cl [N-(4-{2-[4-(2-diethylamino-ethylcarbamoyl)-phhenylcxarbamoyl]-acetyl}-phenyl)-4,6-Bis-((3R,5S)-3,5-diamino-piperidin-1-yl)-[1,3,5]triazine-2-amine]",
< 16,"COc1ccc(Nc2ccc(NC(=O)CC(=O)c3ccc(Nc4nc(N5C[C@H](N)C[C@H](N)C5)nc(N5C[C@H](N)C[C@H](N)C5)n4)cc3)cc2)cc1 [N-(4-{2-[4-(4-methoxy-phenylamino)-phenylcarbamoyl]-acetyl}-phenyl)-4,6-Bis-((3R,5S)-3,5-diamino-piperidin-1-yl)-[1,3,5]triazine-2-amine]",
,"N[C@@H]1C[C@H](N)CN(c2nc(Nc3ccc(C(=O)CC(=O)NCc4ccc5c(c4)OCO5)cc3)nc(N3C[C@H](N)C[C@H](N)C3)n2)C1 [N-(4-{2-[(benzo[1,3]dioxol-5-ylmethyl)-carbamoyl]-acetyl}-phenyl)-4,6-Bis-((3R,5S)-3,5-diamino-piperidin-1-yl)-[1,3,5]triazine-2-amine]",> 64
> 64,"Cl.O=C(CC(=O)N1CCC(n2c(=O)[nH]c3ccccc32)CC1)c1ccc(Nc2nc(N3CCCCC3)nc(N3CCCCC3)n2)cc1 [N-(4-{3-oxo-3-[4-(2-oxo-2,3-dihydro-benzoimidazol-1-yl)-piperidin-1-yl]-propionly}-phenyl)-4,6-Bis-((3R,5S)-3,5-diamino-piperidin-1-yl)-[1,3,5]triazine-2-amine]",
,"Cc1ccc(S(=O)(=O)N(Cc2ccccc2)c2ccc(NC(=O)c3ccc(Nc4nc(N5C[C@H](N)C[C@H](N)C5)nc(N5C[C@H](N)C[C@H](N)C5)n4)cc3O)cc2O)cc1 [N-(4-{4-[benzyl-(toluene-4-sulfonyl)-amino]-3-hydroxy-phenylcarbamoyl)-3-hydroxy-phenyl)-4,6-Bis-((3R,5S)-3,5-diamino-piperidin-1-yl)-[1,3,5]triazine-2-amine]",< 16
